The source made the active and inactive calls.
How the values were obtained:
Format in all cases: functional, organism-based
Staphylococcus aureus [1] = experiment: Antimicrobial activity against Staphylococcus aureus 134/94 assessed as inhibition zone at 0.5 mg/ml by […]
Mycolicibacterium vaccae = experiment: Antimicrobial activity against Mycobacterium vaccae 10670 assessed as inhibition zone at 0.5 mg/ml by […]
Enterococcus faecalis = experiment: Antimicrobial activity against Enterococcus faecalis 1528 assessed as inhibition zone at 0.5 mg/ml by […]
Staphylococcus aureus [2] = experiment: Antimicrobial activity against Staphylococcus aureus SG511 assessed as inhibition zone at 0.5 mg/ml by […]
Bacillus subtilis = experiment: Antimicrobial activity against Bacillus subtilis 6633 assessed as inhibition zone at 0.5 mg/ml by […]

Measured: Activity

CC(C)[C@@H](C)/C=C/[C@@H](C)[C@H]1CC[C@H]2C3=CC=C4C[C@@H](O)CC[C@]4(C)[C@H]3CC[C@]12C
active: Staphylococcus aureus [1] | Mycolicibacterium vaccae | Enterococcus faecalis | Staphylococcus aureus [2] | Bacillus subtilis

From ChEMBL document CHEMBL5137115, “Insights into the Metabolomic Capacity of Podaxis and Isolation of Podaxisterols A-D, Ergosterol Derivatives Carrying Nitrosyl Cyanide-Derived Modifications” (J Nat Prod, 2022)
